Measured values as given in ChEMBL document CHEMBL5291721, “A preclinical secondary pharmacology resource illuminates target-adverse drug reaction associations of marketed drugs” (Nat Commun, 2023).

Legend:
Motilin receptor = Motilin receptor (Homo sapiens, UniProt O43193)
[1] = biological target: T1, Neuropeptide Y receptor type 1 (Homo sapiens, UniProt P25929); details: read-out: AC50
T1 sequence (P25929 whole entry): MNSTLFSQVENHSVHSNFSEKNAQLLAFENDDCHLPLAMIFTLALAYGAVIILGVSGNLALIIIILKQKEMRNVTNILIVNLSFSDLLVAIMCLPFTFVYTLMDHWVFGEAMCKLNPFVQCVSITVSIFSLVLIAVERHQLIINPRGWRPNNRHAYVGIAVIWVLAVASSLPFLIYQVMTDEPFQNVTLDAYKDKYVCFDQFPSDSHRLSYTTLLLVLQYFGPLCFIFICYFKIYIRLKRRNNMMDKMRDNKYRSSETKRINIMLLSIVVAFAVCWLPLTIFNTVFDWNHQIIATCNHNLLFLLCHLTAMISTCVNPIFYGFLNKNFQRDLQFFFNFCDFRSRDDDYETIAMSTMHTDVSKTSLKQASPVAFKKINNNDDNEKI

[2] = biological target: Delta-type opioid receptor (Homo sapiens, UniProt P41143)
[3] = biological target: Sodium-dependent dopamine transporter (Homo sapiens, UniProt Q01959)
[4] = biological target: Glutamate receptor ionotropic, NMDA 1 (Rattus norvegicus, UniProt P35439)
Thromboxane A2 receptor = biological target: T2, Thromboxane A2 receptor (Homo sapiens, UniProt P21731)
T2 sequence (P21731 whole entry): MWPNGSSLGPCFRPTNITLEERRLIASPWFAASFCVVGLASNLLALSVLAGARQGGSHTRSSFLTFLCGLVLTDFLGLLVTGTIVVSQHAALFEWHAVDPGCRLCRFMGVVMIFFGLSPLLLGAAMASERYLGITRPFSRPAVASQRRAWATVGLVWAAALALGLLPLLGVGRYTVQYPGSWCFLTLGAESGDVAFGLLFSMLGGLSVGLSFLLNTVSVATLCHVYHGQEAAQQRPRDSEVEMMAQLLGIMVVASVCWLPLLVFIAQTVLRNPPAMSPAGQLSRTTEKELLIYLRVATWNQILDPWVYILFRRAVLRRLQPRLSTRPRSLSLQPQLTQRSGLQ

[5] = biological target: T3, Muscarinic acetylcholine receptor M2 (Homo sapiens, UniProt P08172); type: functional, cell-based
T3 sequence (P08172 whole entry): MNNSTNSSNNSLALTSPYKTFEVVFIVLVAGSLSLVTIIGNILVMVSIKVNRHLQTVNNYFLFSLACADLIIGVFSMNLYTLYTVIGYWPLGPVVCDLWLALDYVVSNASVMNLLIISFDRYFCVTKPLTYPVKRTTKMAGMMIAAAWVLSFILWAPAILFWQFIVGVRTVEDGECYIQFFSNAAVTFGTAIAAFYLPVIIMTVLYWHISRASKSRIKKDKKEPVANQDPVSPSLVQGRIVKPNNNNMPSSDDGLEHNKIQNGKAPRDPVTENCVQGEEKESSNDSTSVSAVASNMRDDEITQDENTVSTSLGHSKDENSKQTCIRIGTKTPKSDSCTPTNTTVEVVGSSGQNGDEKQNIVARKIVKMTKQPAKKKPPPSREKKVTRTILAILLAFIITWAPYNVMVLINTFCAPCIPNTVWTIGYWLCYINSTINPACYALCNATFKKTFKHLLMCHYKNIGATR

[6] = biological target: T4, Prostaglandin G/H synthase 1 (Rattus norvegicus, UniProt Q63921); type: functional
T4 sequence (Q63921 whole entry): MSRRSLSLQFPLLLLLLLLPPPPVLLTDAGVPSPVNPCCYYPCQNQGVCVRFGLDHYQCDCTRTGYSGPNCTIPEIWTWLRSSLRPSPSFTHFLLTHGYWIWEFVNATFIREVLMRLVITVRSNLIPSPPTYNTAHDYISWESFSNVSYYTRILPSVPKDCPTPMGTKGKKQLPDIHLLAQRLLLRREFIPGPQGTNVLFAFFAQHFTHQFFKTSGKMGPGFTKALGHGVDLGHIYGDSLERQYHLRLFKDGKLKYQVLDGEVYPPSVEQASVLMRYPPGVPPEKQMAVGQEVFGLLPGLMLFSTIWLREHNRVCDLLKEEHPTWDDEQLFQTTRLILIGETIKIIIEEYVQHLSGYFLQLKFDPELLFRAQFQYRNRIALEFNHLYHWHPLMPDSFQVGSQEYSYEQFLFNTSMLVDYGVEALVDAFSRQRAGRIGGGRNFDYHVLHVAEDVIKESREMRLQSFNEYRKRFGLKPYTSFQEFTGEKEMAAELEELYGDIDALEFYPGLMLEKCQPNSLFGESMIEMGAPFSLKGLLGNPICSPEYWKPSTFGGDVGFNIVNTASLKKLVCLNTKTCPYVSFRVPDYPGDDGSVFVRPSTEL

[7] = biological target: T5, Equilibrative nucleoside transporter 1 (Homo sapiens, UniProt Q99808)
T5 sequence (Q99808 whole entry): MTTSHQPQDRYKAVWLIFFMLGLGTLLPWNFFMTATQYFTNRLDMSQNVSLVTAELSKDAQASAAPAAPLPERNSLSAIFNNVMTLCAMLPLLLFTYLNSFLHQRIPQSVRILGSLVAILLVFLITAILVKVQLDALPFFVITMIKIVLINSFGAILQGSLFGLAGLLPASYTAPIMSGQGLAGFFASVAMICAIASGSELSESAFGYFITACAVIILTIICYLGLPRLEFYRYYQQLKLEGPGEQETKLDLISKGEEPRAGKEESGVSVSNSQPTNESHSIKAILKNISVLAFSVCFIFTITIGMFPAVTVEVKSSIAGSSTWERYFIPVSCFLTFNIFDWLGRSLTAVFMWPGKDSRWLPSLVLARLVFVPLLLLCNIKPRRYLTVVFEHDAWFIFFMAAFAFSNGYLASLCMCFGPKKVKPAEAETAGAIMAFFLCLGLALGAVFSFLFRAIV

[8] = biological target: Sodium-dependent noradrenaline transporter (Homo sapiens, UniProt P23975)
[9] = biological target: T6, Type-1 angiotensin II receptor (Homo sapiens, UniProt P30556)
T6 sequence (P30556 whole entry): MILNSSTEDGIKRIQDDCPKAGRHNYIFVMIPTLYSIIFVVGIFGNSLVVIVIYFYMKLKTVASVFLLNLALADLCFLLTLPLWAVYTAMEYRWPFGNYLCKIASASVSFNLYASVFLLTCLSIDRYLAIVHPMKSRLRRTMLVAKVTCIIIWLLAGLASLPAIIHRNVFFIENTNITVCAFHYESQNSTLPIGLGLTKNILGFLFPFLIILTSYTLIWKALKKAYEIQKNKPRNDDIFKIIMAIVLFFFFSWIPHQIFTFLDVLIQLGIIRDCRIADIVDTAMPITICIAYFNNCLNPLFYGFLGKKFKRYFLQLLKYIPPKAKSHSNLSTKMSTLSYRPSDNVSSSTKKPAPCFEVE
Note: assay procedure not described here.

Sequence of Delta-type opioid receptor (P41143 whole entry): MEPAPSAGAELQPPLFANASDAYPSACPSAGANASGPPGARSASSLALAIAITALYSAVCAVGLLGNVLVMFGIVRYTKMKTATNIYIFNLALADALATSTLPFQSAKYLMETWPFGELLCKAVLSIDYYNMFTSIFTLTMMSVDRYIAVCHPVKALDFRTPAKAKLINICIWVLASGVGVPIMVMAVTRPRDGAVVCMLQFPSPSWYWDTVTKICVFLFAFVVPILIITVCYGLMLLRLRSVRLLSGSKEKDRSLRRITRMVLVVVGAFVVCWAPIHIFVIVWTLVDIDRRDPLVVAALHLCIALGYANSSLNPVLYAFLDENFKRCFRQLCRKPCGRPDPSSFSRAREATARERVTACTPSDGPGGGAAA
Sequence of Motilin receptor (O43193 whole entry): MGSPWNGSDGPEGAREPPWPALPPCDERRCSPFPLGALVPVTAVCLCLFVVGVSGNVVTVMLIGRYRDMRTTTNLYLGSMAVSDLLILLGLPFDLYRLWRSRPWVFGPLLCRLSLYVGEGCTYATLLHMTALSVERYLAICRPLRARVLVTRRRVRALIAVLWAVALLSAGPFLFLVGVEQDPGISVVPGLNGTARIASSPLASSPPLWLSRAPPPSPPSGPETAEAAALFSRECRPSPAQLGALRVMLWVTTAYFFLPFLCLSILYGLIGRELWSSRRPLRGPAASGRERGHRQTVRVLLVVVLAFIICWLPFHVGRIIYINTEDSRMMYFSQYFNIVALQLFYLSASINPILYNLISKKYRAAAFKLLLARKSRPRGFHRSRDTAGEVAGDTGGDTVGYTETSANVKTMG
Sequence of Sodium-dependent dopamine transporter (Q01959 whole entry): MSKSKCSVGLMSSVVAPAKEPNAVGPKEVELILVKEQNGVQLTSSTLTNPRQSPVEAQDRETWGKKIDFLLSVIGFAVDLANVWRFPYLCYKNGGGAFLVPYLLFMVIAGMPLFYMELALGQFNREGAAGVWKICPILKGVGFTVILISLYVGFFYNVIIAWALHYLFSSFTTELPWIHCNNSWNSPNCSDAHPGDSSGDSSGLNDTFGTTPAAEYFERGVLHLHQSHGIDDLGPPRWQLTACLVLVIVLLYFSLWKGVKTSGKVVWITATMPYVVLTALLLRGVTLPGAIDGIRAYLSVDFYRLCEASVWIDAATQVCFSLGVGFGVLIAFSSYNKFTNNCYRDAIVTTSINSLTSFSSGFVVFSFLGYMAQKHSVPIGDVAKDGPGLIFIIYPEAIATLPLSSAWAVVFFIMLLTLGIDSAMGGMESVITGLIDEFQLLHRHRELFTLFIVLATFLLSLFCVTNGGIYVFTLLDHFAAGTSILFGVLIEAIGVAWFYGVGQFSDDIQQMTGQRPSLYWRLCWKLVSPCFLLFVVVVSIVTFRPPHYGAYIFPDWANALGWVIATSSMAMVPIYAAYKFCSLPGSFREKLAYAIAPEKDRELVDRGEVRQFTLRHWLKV
Sequence of Sodium-dependent noradrenaline transporter (P23975 whole entry): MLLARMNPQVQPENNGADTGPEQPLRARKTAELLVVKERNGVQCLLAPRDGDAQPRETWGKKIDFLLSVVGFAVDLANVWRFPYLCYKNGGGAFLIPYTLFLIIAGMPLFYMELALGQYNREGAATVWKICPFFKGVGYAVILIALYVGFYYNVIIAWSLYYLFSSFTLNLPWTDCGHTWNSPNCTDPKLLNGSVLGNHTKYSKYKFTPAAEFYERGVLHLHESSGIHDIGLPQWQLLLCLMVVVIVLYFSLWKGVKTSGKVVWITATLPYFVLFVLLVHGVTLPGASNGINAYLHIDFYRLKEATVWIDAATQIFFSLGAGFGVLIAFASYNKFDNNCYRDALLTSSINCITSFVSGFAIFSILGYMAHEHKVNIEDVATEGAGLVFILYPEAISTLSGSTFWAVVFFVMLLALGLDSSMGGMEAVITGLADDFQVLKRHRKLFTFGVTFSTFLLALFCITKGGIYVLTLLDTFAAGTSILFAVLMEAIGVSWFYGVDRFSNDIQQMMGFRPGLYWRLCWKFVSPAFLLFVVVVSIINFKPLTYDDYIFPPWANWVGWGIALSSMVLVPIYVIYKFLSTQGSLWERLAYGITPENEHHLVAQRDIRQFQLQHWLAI

Compound | AC50 (Motilin receptor) | AC50 [1] | AC50 [2] | AC50 [3] | AC50 [4] | AC50 (Thromboxane A2 receptor) | AC50 [5] | AC50 [6] | AC50 [7] | AC50 [8] | AC50 [9]
COCC1=C(C(=O)O)N2C(=O)[C@@H](NC(=O)/C(=N\OC)c3csc(N)n3)[C@H]2SC1 [CEFPODOXIME] | > 30 µM | > 30 µM | > 30 µM | > 30 µM | > 30 µM | > 30 µM | > 30 µM | > 30 µM | > 30 µM | > 30 µM | > 30 µM
Clc1ccc(C(Cn2ccnc2)OCc2ccsc2Cl)c(Cl)c1 (configuration not stated) [TIOCONAZOLE] | > 30 µM | > 30 µM | 3.2 µM | 10.6 µM | > 30 µM | 28.1 µM | > 30 µM | 12.4 µM | > 30 µM | 20.7 µM | > 30 µM
Clc1ccc2c(N3CCN(CCCN4CCN(c5ccnc6cc(Cl)ccc56)CC4)CC3)ccnc2c1 [PIPERAQUINE] | > 30 µM | > 30 µM | > 30 µM | > 30 µM | > 30 µM | > 30 µM | > 30 µM | > 30 µM | > 30 µM | > 30 µM | > 30 µM
CC(C)NCC(O)c1ccc(O)c(O)c1 (configuration not stated) [ISOPROTERENOL] | > 10 µM | > 30 µM | > 10 µM | > 30 µM | > 10 µM | > 30 µM | > 10 µM | > 30 µM | > 30 µM | > 30 µM | > 30 µM
C[C@]12CCC(=O)C(O)=C1CC[C@@H]1[C@@H]2CC[C@]2(C)C(=O)CC[C@@H]12 [FORMESTANE] | > 30 µM | > 30 µM | > 30 µM | > 30 µM | > 30 µM | > 30 µM | > 30 µM | > 30 µM | > 30 µM | > 30 µM | > 30 µM
CCC1(c2ccccc2)CCC(=O)NC1=O (configuration not stated) [GLUTETHIMIDE] | > 10 µM | > 10 µM | > 30 µM | > 10 µM | > 10 µM | > 10 µM | > 10 µM | > 10 µM | > 10 µM | > 10 µM | > 10 µM
Cc1cc2cc3c(C)cc(=O)oc3c(C)c2o1 [TRIOXSALEN] | > 10 µM | > 10 µM | > 30 µM | > 10 µM | > 10 µM | > 10 µM | > 10 µM | > 10 µM | > 10 µM | > 10 µM | > 10 µM
